This is an account of results in patent US7491704B2, “Compounds for enzyme inhibition” (Proteolix, Inc., priority 2004, dated 2009).

Assay [1] has as its target 20S proteasome chymotrypsin-like activity (CT-L) (Homo sapiens, UniProt P20618+P28074). Nature of the assay: 20S proteasome chymotrypsin-like (CT-L) activity inhibition. Format: biochemical. On the procedure: The enzyme inhibitor analogs and prodrugs disclosed herein are useful in part because they inhibit the action of the 20S proteasome. […] That is, the instant compounds show selectivities for the 20S proteasome over other proteases such as cathepsins, calpains, papain, chymotrypsin, trypsin, tripeptidyl pepsidase II. The selectivities of the enzyme inhibitors for 20S proteasome are such that at concentrations below about 50 μM, the enzyme inhibitors show inhibition of the catalytic activity of the 20S proteasome, while not showing inhibition of the catalytic activity of other proteases such as cathepsins, calpains, papain, chymotrypsin, trypsin, tripeptidyl pepsidase II. In preferred embodiments, the enzyme inhibitors show inhibition of the catalytic activity of the 20S proteasome at concentrations below about 10 μM, while not showing inhibition of the catalytic activity of other proteases at these concentrations. […]
The chymotrypsin-like activity of 20S proteasome is characterized by cleavage of peptides in the immediate vicinity of large hydrophobic residues. In particular, the chymotrypsin-like activity of Ntn hydrolases can be determined by cleavage of a standard substrate. […]

Assay [2] has as its target T1, proteasome chymotrypsin-like activity (CT-L), cell-based (Homo sapiens, UniProt P28074).
T1 construct: endogenous in cells
T1 sequence (P28074 60-263): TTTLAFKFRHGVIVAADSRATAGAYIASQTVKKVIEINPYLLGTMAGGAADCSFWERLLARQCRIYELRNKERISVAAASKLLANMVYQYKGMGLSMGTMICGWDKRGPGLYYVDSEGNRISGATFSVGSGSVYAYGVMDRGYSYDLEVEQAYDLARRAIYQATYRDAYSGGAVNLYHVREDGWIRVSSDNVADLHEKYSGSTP
Nature of the assay: Cell-based CT-L activity inhibition.

By IC50 is commonly meant the midpoint of a concentration-inhibition curve.

The structures appear in SMILES notation.

For `CC(C)CC(NC(=O)C(CCc1ccccc1)NC(=O)CN(C)C)C(=O)NC(Cc1ccccc1)C(=O)NC(CC(C)C)C(=O)C1(C)CO1` (centres unmarked) [compound 3], the IC50 in assay [1] and in assay [2] was less than 100 nM throughout.
